For experiment [1] the following is noted: cited from earlier work.
The subject of the next experiment is C57 black 6 mice. As to the kind of experiment: In Vivo Hair Generation Test With C57 Black 6 Mice, Experiment A. Conditions: 30 μM, topical, every 48 hours (3 applications), after 6 weeks. An excerpt:
Care was taken not to nick or cause abrasion to the underlaying dermal layers. The animals were in anagen growth phase, as indicated by the pinkish color of the skin. […] Hair growth was quantitated by the percent of shaved area covered by new hair growth during this time period.

“Also recorded” adds a separate entry of the source.

Take `C=CC[C@@H]1/C=C(\C)C[C@H](C)C[C@H](OC)[C@H]2O[C@@](O)(C(=O)C(=O)N3CCCC[C@H]3C(=O)O[C@H](/C(C)=C/[C@@H]3CC[C@@H](O)[C@H](OC)C3)[C@H](C)[C@@H](O)CC1=O)[C@H](C)C[C@@H]2OC` [FK506]: the “hair growth on topical, but not oral, application (in words)” value in experiment [1] was “stimulates hair growth in a dose-dependent manner”.
On to `CCC(C)(C)C(=O)C(=O)N1CCC[C@H]1C(=O)OCCCc1cccnc1` [GPI 1046, 3-(3-pyridyl)-1-propyl(2s)-1-(3,3-dimethyl-1,2-dioxopentyl)-2-pyrrolidinecarboxylate], for which the “hair regrowth in the shaved area (in words)” value with C57 black 6 mice is “essentially complete hair regrowth and their shaved areas were indistinguishable from unshaven C57 black 6 mice; also recorded: essentially, complete hair regrowth in the shaved area”.

The values above are taken from patent publication US6172087A, “N-oxide of heterocyclic ester, amide, thioester, or ketone hair growth compositions and uses” (GPI NIL Holding, Inc., priority 1998, dated 2001).
